Experimental findings from patent publication US7998992B2, “Oxazolidinone derivative having inhibitory activity on 11β-hydroxysteroid dehydrogenase type 1” (Institute of Medicinal Molecular Design, Inc., priority 2007, dated 2011) are described below.

Structures are written as SMILES.

One assay has as its target Human 11β-HSD1 (Homo sapiens, UniProt P28845). Kind of assay: Evaluation of compound against human 11β-HSD1 (HTRF cortisol assay). The assay is classed as biochemical. The following applies: substrate cortisone 5 μM, 37° C. for 2 hours, HTRF method. How it is done: (§1) After preincubating an inhibitor in a reaction solution consisting of 50 mM sodium phosphate buffer (pH 7.6), bovine serum albumin (1 mg/mL), NADPH (0.42 mg/mL), glucose-6-phosphate (1.26 mg/mL), glucose-6-phosphate dehydrogenase and an enzyme at room temperature for 30 minutes, cortisone (5 μM) which is a substrate was added (total amount 10 μL). After reacting at 37° C. for 2 hours, an XL-665-labeled cortisol solution (5 μL), and a Cryptate-labeled anti-cortisol antibody solution (5 μL) were added, a reaction was performed at room temperature for 2 hours, and fluorescence intensity (HTRF method) was measured. A cortisol concentration was measured from a standard curve prepared using a known concentration of cortisol for each assay.
Taking a concentration of cortisol generated in the absence of the inhibitor as a control value, 50% inhibition concentration (IC50 value) of the inhibitor against 11β-HSD1 was calculated from an inhibition curve plotting inhibition rate against the control value at each concentration of an inhibitor.

A further assay has as its target Mouse 11β-HSD1 (Mus musculus, UniProt P50172). Description: Evaluation of compound against mouse 11β-HSD1 (HTRF corticosterone assay). The following applies: substrate 11-dehydrocorticosterone 2 μM, 37° C. for 2 hours, HTRF method. The class given is biochemical. How it is done: as §1, with “dehydrogenase,” for “dehydrogenase”, “11-dehydrocorticosterone (2” for “cortisone (5”, “measured.” for “measured. A cortisol concentration was measured from a standard curve prepared using a known concentration of cortisol for each assay.”
A corticosterone concentration was measured from a standard curve prepared using a known concentration of corticosterone for each assay.
Taking a concentration of corticosterone generated in the absence of the inhibitor as a control value, 50% inhibition concentration (IC50 value) of the inhibitor against 11β-HSD1 was calculated from an inhibition curve plotting inhibition rate against the control value at each concentration of the inhibitor.
In general terms: TR-FRET usually uses a lanthanide donor and a delayed reading to cut background.

Chain of Mouse 11β-HSD1 (P50172 whole entry): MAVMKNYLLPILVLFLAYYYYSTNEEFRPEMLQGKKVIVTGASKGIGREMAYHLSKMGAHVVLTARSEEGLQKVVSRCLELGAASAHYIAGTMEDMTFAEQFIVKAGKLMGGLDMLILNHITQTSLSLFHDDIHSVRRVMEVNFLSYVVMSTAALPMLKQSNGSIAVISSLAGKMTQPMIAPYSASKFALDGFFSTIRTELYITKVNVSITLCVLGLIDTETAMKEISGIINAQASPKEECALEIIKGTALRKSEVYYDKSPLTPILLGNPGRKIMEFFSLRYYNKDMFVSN
Chain of Human 11β-HSD1 (P28845 whole entry): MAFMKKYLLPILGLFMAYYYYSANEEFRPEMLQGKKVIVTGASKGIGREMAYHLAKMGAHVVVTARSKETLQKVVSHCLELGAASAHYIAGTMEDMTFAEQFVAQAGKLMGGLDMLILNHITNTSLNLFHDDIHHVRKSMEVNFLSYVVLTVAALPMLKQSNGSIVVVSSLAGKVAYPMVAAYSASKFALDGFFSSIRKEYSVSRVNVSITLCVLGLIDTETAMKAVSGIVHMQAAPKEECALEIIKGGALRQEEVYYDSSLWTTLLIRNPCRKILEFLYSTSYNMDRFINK

`CCN(C[C@@H]1CN(C2CCCCCCC2)C(=O)O1)S(=O)(=O)c1ccccc1` [Compound I-21]: the concentration for half-maximal inhibition (IC50) (as a rule, the midpoint of a concentration-inhibition curve) against Human 11β-HSD1 turned out to be 0.43 µM; against Mouse 11β-HSD1 it was 8.4 µM.
